Article PMC2229492 (The Journal of General Physiology, 2000)
Numbering of substitutions follows the chain as printed.

Legend:
[1] = target: T1, rat olfactory CNG (OLF) channel (Rattus norvegicus, UniProt Q00195, W332Y); assay: inside-out patch recording, cGMP dose-response; assay type: cell-based
T1 sequence (Q00195 1-664 W332Y): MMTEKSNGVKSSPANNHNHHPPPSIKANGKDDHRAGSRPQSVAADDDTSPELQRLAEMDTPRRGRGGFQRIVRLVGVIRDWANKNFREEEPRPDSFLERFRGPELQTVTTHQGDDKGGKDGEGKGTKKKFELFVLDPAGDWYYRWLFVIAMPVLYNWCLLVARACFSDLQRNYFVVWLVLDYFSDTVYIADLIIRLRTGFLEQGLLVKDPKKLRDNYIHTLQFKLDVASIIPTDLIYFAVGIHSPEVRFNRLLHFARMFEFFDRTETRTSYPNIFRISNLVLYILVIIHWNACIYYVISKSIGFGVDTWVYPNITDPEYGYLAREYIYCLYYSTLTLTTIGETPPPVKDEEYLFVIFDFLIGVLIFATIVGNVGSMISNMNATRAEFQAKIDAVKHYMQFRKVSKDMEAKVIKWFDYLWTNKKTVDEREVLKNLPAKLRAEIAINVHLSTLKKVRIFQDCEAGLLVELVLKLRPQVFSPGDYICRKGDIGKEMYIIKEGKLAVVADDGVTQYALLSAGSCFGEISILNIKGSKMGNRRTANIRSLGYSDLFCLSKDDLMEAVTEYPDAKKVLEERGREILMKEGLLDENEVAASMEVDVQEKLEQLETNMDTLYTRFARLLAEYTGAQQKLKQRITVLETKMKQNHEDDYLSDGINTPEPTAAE

[2] = target: T2, rat olfactory CNG (OLF) channel (Rattus norvegicus, UniProt Q00195); assay: inside-out patch recording, cGMP dose-response; assay type: cell-based
T2 sequence (Q00195 1-664): T1 sequence (Q00195 1-664 W332Y) with Y332W

- EC50 [1]: 17.7 µM
- EC50 [2]: 2.47 µM
Structure (SMILES): Nc1nc2c(ncn2[C@@H]2O[C@@H]3COP(=O)(O)O[C@H]3[C@H]2O)c(=O)[nH]1 [cGMP]
